Assay results as given in PMC4821887, “Identification of chemicals that mimic transcriptional changes associated with autism, brain aging and neurodegeneration” (Nature Communications, 2016).

system: mouse cortical neuron cultures; details: not given

Question: How did the “% Dead cells (vehicle subtracted)” value turn out when `CCOP(=S)(OCC)Oc1cc(C)nc(C(C)C)n1` [Diazinon] was run?
Answer: 0.1738%

Question: With `COC(=O)C=C(C)OP(=O)(OC)OC` as the compound, how does the “% Dead cells (vehicle subtracted)” value read?
Answer: -2.439%

Question: Which “% Dead cells (vehicle subtracted)” value does the source give for `OC(c1ccc(Cl)cc1)(c1cncnc1)c1ccccc1Cl` (centres unmarked) [Fenarimol] here?
Answer: -1.829%

Question: For `O=C(NC(=O)c1c(F)cccc1F)Nc1ccc(OC(F)(F)C(F)OC(F)(F)F)c(Cl)c1` (centres unmarked) [Novaluron], which “% Dead cells (vehicle subtracted)” value is on record?
Answer: -1.142%

Question: For `CCC(CC)Nc1c([N+](=O)[O-])cc(C)c(C)c1[N+](=O)[O-]` [Pendimethalin], which “% Dead cells (vehicle subtracted)” value is on record?
Answer: 0.8617%

Question: Which “% Dead cells (vehicle subtracted)” value does the source give for `CNc1cnn(-c2cccc(C(F)(F)F)c2)c(=O)c1Cl` [Norflurazon] here?
Answer: -0.1097%

Question: Which “% Dead cells (vehicle subtracted)” value does the source give for `CCOP(=O)(SC(C)CC)N1CCSC1=O` (centres unmarked) [Fosthiazate] here?
Answer: -0.4742%

Question: With `O=C(O)C1(C(=O)Nc2ccc(Cl)cc2Cl)CC1` [Cyclanilide] as the compound, how does the “% Dead cells (vehicle subtracted)” value read?
Answer: 0.6928%

Question: `CCc1ccc(C(=O)NN(C(=O)c2cc(C)cc(C)c2)C(C)(C)C)cc1` [Tebufenozide] was tested. Which “% Dead cells (vehicle subtracted)” value did it give?
Answer: -1.661%

Question: For `COC(=O)C(C)Oc1ccc(Oc2ccc(Cl)cc2Cl)cc1` (centres unmarked) [Diclofop-methyl], which “% Dead cells (vehicle subtracted)” value is on record?
Answer: -2.902%

Question: For `COP(=O)(OC)OC=C(Cl)Cl` [Dichlorvos], which “% Dead cells (vehicle subtracted)” value is on record?
Answer: 0.4159%

Question: How did the “% Dead cells (vehicle subtracted)” value turn out when `COc1cc(Cl)c(OC)cc1Cl` [Chloroneb] was run?
Answer: -0.9422%

Question: For `CCOP(=S)(OCC)Oc1ccc2c(C)c(Cl)c(=O)oc2c1` [Coumaphos], which “% Dead cells (vehicle subtracted)” value is on record?
Answer: 0.01959%

Question: `O=S1OCC2C(CO1)C1(Cl)C(Cl)=C(Cl)C2(Cl)C1(Cl)Cl` (centres unmarked) [Endosulfan] was tested. Which “% Dead cells (vehicle subtracted)” value did it give?
Answer: -0.8816%

Question: How did the “% Dead cells (vehicle subtracted)” value turn out when `Oc1ccc(C(c2ccc(O)cc2)C(Cl)(Cl)Cl)cc1` was run?
Answer: 1.986%

Question: For `CC1(C)CON(Cc2ccccc2Cl)C1=O` [Clomazone], which “% Dead cells (vehicle subtracted)” value is on record?
Answer: -3.452%

Question: How did the “% Dead cells (vehicle subtracted)” value turn out when `CCOC(=O)COc1cc(-n2ncc(C(F)(F)F)c(C)c2=O)c(F)cc1Cl` [Flufenpyr-ethyl] was run?
Answer: -1.575%

Question: How did the “% Dead cells (vehicle subtracted)” value turn out when `COc1cccc(C(=O)NN(C(=O)c2cc(C)cc(C)c2)C(C)(C)C)c1C` [Methoxyfenozide] was run?
Answer: 0.2717%

Question: Which “% Dead cells (vehicle subtracted)” value does the source give for `CCOP(=O)(NC(C)C)Oc1ccc(SC)c(C)c1` (centres unmarked) [Fenamiphos] here?
Answer: 5.708%

Question: Which “% Dead cells (vehicle subtracted)” value does the source give for `CCOP(=S)(OCC)SCn1c(=O)oc2cc(Cl)ccc21` [Phosalone] here?
Answer: 3.318%

Question: `CCCCOC(=O)[C@@H](C)Oc1ccc(Oc2ccc(C(F)(F)F)cn2)cc1` was tested. Which “% Dead cells (vehicle subtracted)” value did it give?
Answer: 0.5693%

Question: How did the “% Dead cells (vehicle subtracted)” value turn out when Abamectin was run?
Answer: 4.666%

Question: For `CCN(Cc1c(F)cccc1Cl)c1c([N+](=O)[O-])cc(C(F)(F)F)cc1[N+](=O)[O-]` [Flumetralin], which “% Dead cells (vehicle subtracted)” value is on record?
Answer: 1.368%

Question: `CCCCN(CC)c1c([N+](=O)[O-])cc(C(F)(F)F)cc1[N+](=O)[O-]` [Benfluralin [Benefin]] was tested. Which “% Dead cells (vehicle subtracted)” value did it give?
Answer: -1.412%

Question: `CC1COC(Cn2cncn2)(c2ccc(Oc3ccc(Cl)cc3)cc2Cl)O1` (centres unmarked) [Difenoconazole] was tested. Which “% Dead cells (vehicle subtracted)” value did it give?
Answer: -2.028%

Question: For `Clc1ccccc1-c1nnc(-c2ccccc2Cl)nn1` [Clofentezine], which “% Dead cells (vehicle subtracted)” value is on record?
Answer: 0.4977%

Question: Which “% Dead cells (vehicle subtracted)” value does the source give for Milbemectin here?
Answer: 1.383%

Question: With `CCCOC(=O)c1ccc(C(=O)OCCC)nc1` as the compound, how does the “% Dead cells (vehicle subtracted)” value read?
Answer: -2.999%

Question: With `CC(Oc1ccc(Cl)cc1Cl)C(=O)O` (centres unmarked) as the compound, how does the “% Dead cells (vehicle subtracted)” value read?
Answer: -0.3394%

Question: Which “% Dead cells (vehicle subtracted)” value does the source give for `CN(C)C(=O)Nc1ccc(Cl)c(Cl)c1` [Diuron] here?
Answer: -0.632%

Question: For `CNC(=O)/C=C(\C)OP(=O)(OC)OC`, which “% Dead cells (vehicle subtracted)” value is on record?
Answer: -1.862%

Question: How did the “% Dead cells (vehicle subtracted)” value turn out when `NCCO.O=C(O)c1nc(Cl)ccc1Cl` [Clopyralid-olamine] was run?
Answer: 0.5713%

Question: How did the “% Dead cells (vehicle subtracted)” value turn out when `N#Cc1cc(Br)c(O)c(Br)c1` was run?
Answer: -1.631%

Question: How did the “% Dead cells (vehicle subtracted)” value turn out when `C=CCC1=C(C)[C@@H](OC(=O)[C@@H]2[C@@H](C=C(C)C)C2(C)C)CC1=O` [S-Bioallethrin] was run?
Answer: -1.697%

Question: `CCCC1COC(Cn2cncn2)(c2ccc(Cl)cc2Cl)O1` (centres unmarked) [Propiconazole] was tested. Which “% Dead cells (vehicle subtracted)” value did it give?
Answer: 0.7517%

Question: For `COP(N)(=O)SC` (centres unmarked) [Methamidophos], which “% Dead cells (vehicle subtracted)” value is on record?
Answer: -1.5388%

Question: For `CCC(C)n1c(=O)[nH]c(C)c(Br)c1=O` (centres unmarked) [Bromacil], which “% Dead cells (vehicle subtracted)” value is on record?
Answer: 5.5524%

Question: Which “% Dead cells (vehicle subtracted)” value does the source give for `CCCCOC(=O)[C@@H](C)Oc1ccc(Oc2ccc(C#N)cc2F)cc1` [Cyhalofop-butyl] here?
Answer: 0.4476%

Question: How did the “% Dead cells (vehicle subtracted)” value turn out when `Cc1cc(C)nc(NC(=O)NS(=O)(=O)c2ccccc2C(=O)OC2COC2)n1` [Oxasulfuron (benzoic acid)] was run?
Answer: -0.4775%

Question: `CNC(=O)CSP(=S)(OC)OC` [Dimethoate] was tested. Which “% Dead cells (vehicle subtracted)” value did it give?
Answer: -3.6%

Question: Which “% Dead cells (vehicle subtracted)” value does the source give for `COC(=O)c1ccccc1C(=O)OC` [Dimethyl phthalate] here?
Answer: 1.872%

Question: `CCOC(=O)COc1cc(-c2nn(C)c(OC(F)F)c2Cl)c(F)cc1Cl` [Pyraflufen-ethyl] was tested. Which “% Dead cells (vehicle subtracted)” value did it give?
Answer: -2.144%

Question: For `COP(=S)(OC)Oc1nc(Cl)c(Cl)cc1Cl` [Chlorpyrifos-methyl], which “% Dead cells (vehicle subtracted)” value is on record?
Answer: -0.3201%

Question: With `O=C(O)COc1nc(Cl)c(Cl)cc1Cl` [Triclopyr] as the compound, how does the “% Dead cells (vehicle subtracted)” value read?
Answer: -0.8572%

Question: For `C#CCC1=C(C)C(OC(=O)C2C(C=C(C)C)C2(C)C)CC1=O` (centres unmarked) [Prallethrin], which “% Dead cells (vehicle subtracted)” value is on record?
Answer: -0.1241%

Question: `Oc1ccc(Cl)cc1Cc1ccccc1` [Clorophene] was tested. Which “% Dead cells (vehicle subtracted)” value did it give?
Answer: 2.359%

Question: With `Cc1ccc(C(=O)c2ccccc2)cc1` [Methanone (4-Methylbenzophenone)] as the compound, how does the “% Dead cells (vehicle subtracted)” value read?
Answer: 2.416%

same assay, conditions: 10 µM chemical; mouse cortical neuron cultures

Question: For `CCCCC(CC)COC(=O)c1ccccc1C(=O)O` (centres unmarked), which “% Dead cells (vehicle subtracted)” value is on record?
Answer: -0.8176%

same assay, conditions: mouse, 24 h, 10 µM

Question: How did the “% Dead cells (vehicle subtracted)” value turn out when `CC(C)NC(=O)N1CC(=O)N(c2cc(Cl)cc(Cl)c2)C1=O` [Iprodione] was run?
Answer: 8.376%

Question: How did the “% Dead cells (vehicle subtracted)” value turn out when `C=CCOC(=O)C(C)(C)OC(=O)c1cc(-n2c(=O)cc(C(F)(F)F)n(C)c2=O)ccc1Cl` [Butafenacil] was run?
Answer: -4.681%

Question: Which “% Dead cells (vehicle subtracted)” value does the source give for `Cc1nn(-c2cc(NS(C)(=O)=O)c(Cl)cc2Cl)c(=O)n1C(F)F` [Sulfentrazone] here?
Answer: -1.513%

Question: Which “% Dead cells (vehicle subtracted)” value does the source give for `CCN(CC)C(=O)SCc1ccc(Cl)cc1` [Thiobencarb] here?
Answer: -1.522%

Question: How did the “% Dead cells (vehicle subtracted)” value turn out when `CCc1cnc(C2=NC(C)(C(C)C)C(=O)N2)c(C(=O)O)c1` (centres unmarked) [Imazethapyr] was run?
Answer: 4.704%

Question: `CN(C)c1nc(=O)n(C2CCCCC2)c(=O)n1C` [Hexazinone] was tested. Which “% Dead cells (vehicle subtracted)” value did it give?
Answer: -2.629%

Question: For `CCCOC/C(=N\c1ccc(Cl)cc1C(F)(F)F)n1ccnc1` [Triflumizole], which “% Dead cells (vehicle subtracted)” value is on record?
Answer: 1.241%

Question: With `CCCCNC(=O)n1c(NC(=O)OC)nc2ccccc21` [Benomyl] as the compound, how does the “% Dead cells (vehicle subtracted)” value read?
Answer: 1.032%

Question: `CCSC(=O)N(CC)C1CCCCC1` [Cycloate] was tested. Which “% Dead cells (vehicle subtracted)” value did it give?
Answer: 2.452%

Question: With `CC(C)OC(=O)Nc1cccc(Cl)c1` [Chlorpropham] as the compound, how does the “% Dead cells (vehicle subtracted)” value read?
Answer: -1.179%

Question: Which “% Dead cells (vehicle subtracted)” value does the source give for `CCCN(CC)CC1COC2(CCC(C(C)(C)C)CC2)O1` (centres unmarked) [Spiroxamine] here?
Answer: 7.8727%

Question: Which “% Dead cells (vehicle subtracted)” value does the source give for `COC(=O)c1ccccc1S(=O)(=O)NC(=O)N(C)c1nc(C)nc(OC)n1` [Tribenuron-methyl] here?
Answer: -1.861%

Question: How did the “% Dead cells (vehicle subtracted)” value turn out when `c1ccc2[nH]c(-c3cscn3)nc2c1` [Thiabendazole] was run?
Answer: -3.658%

Question: Which “% Dead cells (vehicle subtracted)” value does the source give for `CCC(C)(CC)c1cc(NC(=O)c2c(OC)cccc2OC)on1` [Isoxaben] here?
Answer: -1.274%

Question: How did the “% Dead cells (vehicle subtracted)” value turn out when `Nc1nc(N)nc(NC2CC2)n1` [Cyromazine] was run?
Answer: -4.3436%

Question: Which “% Dead cells (vehicle subtracted)” value does the source give for `CCOC(=O)C(C)Oc1ccc(Oc2nc3ccc(Cl)cc3o2)cc1` (centres unmarked) [Fenoxaprop-ethyl] here?
Answer: 9.924%

Question: `CC1(C)C(C=C(Cl)Cl)C1C(=O)OC(C#N)c1cccc(Oc2ccccc2)c1` (centres unmarked) [Cypermethrin] was tested. Which “% Dead cells (vehicle subtracted)” value did it give?
Answer: -3.377%

Question: Which “% Dead cells (vehicle subtracted)” value does the source give for `C=CC1(C)OC(=O)N(c2cc(Cl)cc(Cl)c2)C1=O` (centres unmarked) [Vinclozolin] here?
Answer: -1.854%

Question: For `COCC(C)N(C(=O)CCl)c1c(C)csc1C` (centres unmarked) [Dimethenamid], which “% Dead cells (vehicle subtracted)” value is on record?
Answer: -0.353%

Question: With `Nc1c(Cl)c(F)nc(OCC(=O)O)c1Cl` [Fluroxypyr] as the compound, how does the “% Dead cells (vehicle subtracted)” value read?
Answer: -1.905%

Question: How did the “% Dead cells (vehicle subtracted)” value turn out when `CC(C)C1(C)N=C(c2ncccc2C(=O)O)NC1=O` (centres unmarked) [Imazapyr] was run?
Answer: 1.122%

Question: Which “% Dead cells (vehicle subtracted)” value does the source give for `c1ccc(Nc2ccccc2)cc1` [Diphenylamine] here?
Answer: 2.557%

Question: With `CCCCC(O)(Cn1cncn1)c1ccc(Cl)cc1Cl` (centres unmarked) [Hexaconazole] as the compound, how does the “% Dead cells (vehicle subtracted)” value read?
Answer: -2.068%

Question: Which “% Dead cells (vehicle subtracted)” value does the source give for `CCNc1nc(NC(C)C)nc(SC)n1` [Ametryn] here?
Answer: 0.09019%

Question: How did the “% Dead cells (vehicle subtracted)” value turn out when `O=C1c2ccccc2C(=O)N1SC(Cl)(Cl)Cl` [Folpet] was run?
Answer: -1.248%

Question: For `C[Si](Cn1cncn1)(c1ccc(F)cc1)c1ccc(F)cc1` [Flusilazole], which “% Dead cells (vehicle subtracted)” value is on record?
Answer: -0.05737%
